Test results from publication PMC3969223, “Characterization of WZ4003 and HTH-01-015 as selective inhibitors of the LKB1-tumour-suppressor-activated NUAK kinases” (Biochemical Journal, 2013).

Assays:
Assay in all cases: Kinase profiling
Type in all cases: biochemical
MAP4K5 = MAP4K5 (Homo sapiens, UniProt Q9Y4K4); details: 0.1 or 1 μM inhibitor; mean of triplicate
How it was run: (§1)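 Read-out: % residual kinase activity vs DMSO control; mean of triplicates ±S.D. Inhibitor tested at 0.1 or 1 μM in vitro across a 140-kinase panel.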

PKCζ = PKCζ (Homo sapiens, UniProt Q05513); details: 0.1 or 1 μM inhibitor; mean of triplicate
How it was run: as §1

CHK2 = CHK2 (Homo sapiens, UniProt O96017); details: 0.1 or 1 μM inhibitor; mean of triplicate
How it was run: as §1

MARK3 = MARK3 (Homo sapiens, UniProt P27448)
How it was run: as §1

MKK1 = MKK1 (Homo sapiens, UniProt Q02750); details: 0.1 or 1 μM inhibitor; mean of triplicate
How it was run: as §1

VEG-FR = VEG-FR (Homo sapiens, UniProt P17948); details: 0.1 or 1 μM inhibitor; mean of triplicate
How it was run: as §1

CK1γ 2 = CK1γ 2 (Homo sapiens, UniProt P78368); details: 0.1 or 1 μM inhibitor; mean of triplicate
How it was run: as §1

MKK2 = MKK2 (Homo sapiens, UniProt P36507); details: 0.1 or 1 μM inhibitor; mean of triplicate
How it was run: as §1

TIE2 = TIE2 (Homo sapiens, UniProt Q02763); details: 0.1 or 1 μM inhibitor; mean of triplicate
TGFBR1 = TGFBR1 (Homo sapiens, UniProt P36897); details: 0.1 or 1 μM inhibitor; mean of triplicate
Sequence of TGFBR1 (P36897 34-503): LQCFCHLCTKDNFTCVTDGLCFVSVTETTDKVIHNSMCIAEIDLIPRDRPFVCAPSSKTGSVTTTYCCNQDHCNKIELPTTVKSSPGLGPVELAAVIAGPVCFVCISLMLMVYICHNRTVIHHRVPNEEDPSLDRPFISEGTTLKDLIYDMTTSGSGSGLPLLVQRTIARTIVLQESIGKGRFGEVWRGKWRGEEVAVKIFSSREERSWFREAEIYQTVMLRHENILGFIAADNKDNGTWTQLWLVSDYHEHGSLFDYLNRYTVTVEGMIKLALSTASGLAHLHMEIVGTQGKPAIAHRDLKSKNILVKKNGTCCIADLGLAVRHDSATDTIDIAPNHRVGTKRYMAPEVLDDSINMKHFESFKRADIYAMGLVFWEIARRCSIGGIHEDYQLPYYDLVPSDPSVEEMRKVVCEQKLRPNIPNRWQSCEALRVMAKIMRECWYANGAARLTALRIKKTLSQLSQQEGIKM
How it was run: as §1

ASK1 = ASK1 (Homo sapiens, UniProt Q99683); details: 0.1 or 1 μM inhibitor; mean of triplicate
How it was run: as §1

SIK3 = SIK3 (Homo sapiens, UniProt Q9Y2K2); details: 0.1 or 1 μM inhibitor; mean of triplicate
How it was run: as §1

p38β MAPK = p38β MAPK (Homo sapiens, UniProt Q15759); details: 0.1 or 1 μM inhibitor; mean of triplicate
Sequence of p38β MAPK (Q15759 whole entry): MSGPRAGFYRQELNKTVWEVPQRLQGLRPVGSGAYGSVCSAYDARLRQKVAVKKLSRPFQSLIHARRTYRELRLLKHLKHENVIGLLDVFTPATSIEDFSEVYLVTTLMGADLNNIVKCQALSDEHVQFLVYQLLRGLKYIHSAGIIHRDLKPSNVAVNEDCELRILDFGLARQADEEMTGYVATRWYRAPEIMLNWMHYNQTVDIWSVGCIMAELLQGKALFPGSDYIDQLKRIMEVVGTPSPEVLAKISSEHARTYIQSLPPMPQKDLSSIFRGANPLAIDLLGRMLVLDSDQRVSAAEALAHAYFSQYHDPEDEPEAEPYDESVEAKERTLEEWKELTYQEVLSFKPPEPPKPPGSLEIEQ
How it was run: as §1

NEK6 = NEK6 (Homo sapiens, UniProt Q9HC98); details: 0.1 or 1 μM inhibitor; mean of triplicate
How it was run: as §1

PKBβ = PKBβ (Homo sapiens, UniProt P31751); details: 0.1 or 1 μM inhibitor; mean of triplicate
Sequence of PKBβ (P31751 whole entry): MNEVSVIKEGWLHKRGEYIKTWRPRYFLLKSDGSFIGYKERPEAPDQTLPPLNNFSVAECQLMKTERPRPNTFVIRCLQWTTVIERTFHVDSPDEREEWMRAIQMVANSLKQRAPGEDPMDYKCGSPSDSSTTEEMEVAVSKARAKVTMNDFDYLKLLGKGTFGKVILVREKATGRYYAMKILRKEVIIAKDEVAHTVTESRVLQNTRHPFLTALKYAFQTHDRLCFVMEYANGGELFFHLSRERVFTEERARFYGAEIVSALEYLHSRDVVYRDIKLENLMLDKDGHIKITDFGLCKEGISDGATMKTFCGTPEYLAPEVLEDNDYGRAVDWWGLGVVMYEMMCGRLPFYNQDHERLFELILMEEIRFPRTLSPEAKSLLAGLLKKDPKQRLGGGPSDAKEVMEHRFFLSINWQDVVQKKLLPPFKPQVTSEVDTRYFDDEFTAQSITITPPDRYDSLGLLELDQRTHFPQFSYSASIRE
How it was run: as §1

AMPK = system: AMPK
How it was run: as §1

MARK1 = MARK1 (Homo sapiens, UniProt Q9P0L2)
Sequence of MARK1 (Q9P0L2 whole entry): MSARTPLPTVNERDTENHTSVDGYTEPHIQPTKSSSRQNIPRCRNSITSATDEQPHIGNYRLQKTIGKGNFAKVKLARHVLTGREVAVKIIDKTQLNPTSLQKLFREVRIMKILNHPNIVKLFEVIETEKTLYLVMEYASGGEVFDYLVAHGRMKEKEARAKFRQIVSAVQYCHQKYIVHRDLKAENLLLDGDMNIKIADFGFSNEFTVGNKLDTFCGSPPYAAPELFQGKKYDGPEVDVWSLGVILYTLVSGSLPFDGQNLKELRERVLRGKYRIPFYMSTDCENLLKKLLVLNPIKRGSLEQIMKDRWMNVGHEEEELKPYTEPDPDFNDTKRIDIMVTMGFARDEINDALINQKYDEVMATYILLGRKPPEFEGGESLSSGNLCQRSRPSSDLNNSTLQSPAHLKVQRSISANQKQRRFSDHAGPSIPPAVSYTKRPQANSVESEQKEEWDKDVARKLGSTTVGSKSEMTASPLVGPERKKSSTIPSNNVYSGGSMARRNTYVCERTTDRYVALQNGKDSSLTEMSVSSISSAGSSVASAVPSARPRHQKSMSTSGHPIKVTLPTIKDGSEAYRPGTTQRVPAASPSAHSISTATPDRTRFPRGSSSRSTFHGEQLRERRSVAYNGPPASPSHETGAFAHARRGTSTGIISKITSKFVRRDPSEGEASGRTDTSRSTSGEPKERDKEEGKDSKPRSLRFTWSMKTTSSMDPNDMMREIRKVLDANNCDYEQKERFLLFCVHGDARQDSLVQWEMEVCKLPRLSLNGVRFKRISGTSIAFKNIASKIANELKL
How it was run: as §1

EPH-B1 = EPH-B1 (Homo sapiens, UniProt P54762); details: 0.1 or 1 μM inhibitor; mean of triplicate
Sequence of EPH-B1 (P54762 18-984): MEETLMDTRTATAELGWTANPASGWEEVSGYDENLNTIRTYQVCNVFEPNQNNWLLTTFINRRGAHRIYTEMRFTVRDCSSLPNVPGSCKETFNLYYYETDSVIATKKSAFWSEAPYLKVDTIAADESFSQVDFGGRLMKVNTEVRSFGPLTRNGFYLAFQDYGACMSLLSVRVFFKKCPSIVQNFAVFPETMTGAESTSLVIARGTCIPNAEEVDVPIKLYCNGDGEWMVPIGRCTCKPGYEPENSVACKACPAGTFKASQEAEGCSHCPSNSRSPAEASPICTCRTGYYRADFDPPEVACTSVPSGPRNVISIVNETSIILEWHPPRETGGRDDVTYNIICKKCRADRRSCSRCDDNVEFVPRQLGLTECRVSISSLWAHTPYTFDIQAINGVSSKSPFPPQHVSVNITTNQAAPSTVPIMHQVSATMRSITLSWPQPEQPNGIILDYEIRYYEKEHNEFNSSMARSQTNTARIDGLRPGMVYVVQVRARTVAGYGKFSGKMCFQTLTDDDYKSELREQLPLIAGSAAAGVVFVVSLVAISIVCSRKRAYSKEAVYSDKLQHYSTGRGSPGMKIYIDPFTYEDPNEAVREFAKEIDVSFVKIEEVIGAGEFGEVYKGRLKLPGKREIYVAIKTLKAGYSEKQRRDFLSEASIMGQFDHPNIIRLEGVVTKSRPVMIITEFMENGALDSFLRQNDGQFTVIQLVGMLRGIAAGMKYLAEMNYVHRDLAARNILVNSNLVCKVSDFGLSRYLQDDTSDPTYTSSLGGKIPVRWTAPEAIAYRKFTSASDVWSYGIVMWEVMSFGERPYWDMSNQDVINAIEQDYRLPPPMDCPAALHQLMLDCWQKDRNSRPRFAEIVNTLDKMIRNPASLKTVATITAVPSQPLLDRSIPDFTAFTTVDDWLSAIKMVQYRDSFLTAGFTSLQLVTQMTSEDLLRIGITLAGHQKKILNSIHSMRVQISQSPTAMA
How it was run: as §1

ERK2 = ERK2 (Homo sapiens, UniProt P28482); details: 0.1 or 1 μM inhibitor; mean of triplicate
How it was run: as §1

ULK1 = ULK1 (Homo sapiens, UniProt O75385); details: 0.1 or 1 μM inhibitor; mean of triplicate
How it was run: as §1

CSK = CSK (Homo sapiens, UniProt P41240); details: 0.1 or 1 μM inhibitor; mean of triplicate
How it was run: as §1

MAPKAP-K3 = MAPKAP-K3 (Homo sapiens, UniProt Q16644); details: 0.1 or 1 μM inhibitor; mean of triplicate
How it was run: as §1

SIK2 = SIK2 (Homo sapiens, UniProt Q9H0K1); details: 0.1 or 1 μM inhibitor; mean of triplicate
How it was run: as §1

PDK1 = PDK1 (Homo sapiens, UniProt O15530); details: 0.1 or 1 μM inhibitor; mean of triplicate
How it was run: as §1

PKBα = PKBα (Homo sapiens, UniProt P31749); details: 0.1 or 1 μM inhibitor; mean of triplicate
How it was run: as §1

MKK6 = MKK6 (Homo sapiens, UniProt P52564); details: 0.1 or 1 μM inhibitor; mean of triplicate
How it was run: as §1

LKB1 = LKB1 (Homo sapiens, UniProt Q15831); details: 0.1 or 1 μM inhibitor; mean of triplicate
How it was run: as §1

ROCK 2 = ROCK 2 (Homo sapiens, UniProt O75116); details: 0.1 or 1 μM inhibitor; mean of triplicate
Sequence of ROCK 2 (O75116 whole entry): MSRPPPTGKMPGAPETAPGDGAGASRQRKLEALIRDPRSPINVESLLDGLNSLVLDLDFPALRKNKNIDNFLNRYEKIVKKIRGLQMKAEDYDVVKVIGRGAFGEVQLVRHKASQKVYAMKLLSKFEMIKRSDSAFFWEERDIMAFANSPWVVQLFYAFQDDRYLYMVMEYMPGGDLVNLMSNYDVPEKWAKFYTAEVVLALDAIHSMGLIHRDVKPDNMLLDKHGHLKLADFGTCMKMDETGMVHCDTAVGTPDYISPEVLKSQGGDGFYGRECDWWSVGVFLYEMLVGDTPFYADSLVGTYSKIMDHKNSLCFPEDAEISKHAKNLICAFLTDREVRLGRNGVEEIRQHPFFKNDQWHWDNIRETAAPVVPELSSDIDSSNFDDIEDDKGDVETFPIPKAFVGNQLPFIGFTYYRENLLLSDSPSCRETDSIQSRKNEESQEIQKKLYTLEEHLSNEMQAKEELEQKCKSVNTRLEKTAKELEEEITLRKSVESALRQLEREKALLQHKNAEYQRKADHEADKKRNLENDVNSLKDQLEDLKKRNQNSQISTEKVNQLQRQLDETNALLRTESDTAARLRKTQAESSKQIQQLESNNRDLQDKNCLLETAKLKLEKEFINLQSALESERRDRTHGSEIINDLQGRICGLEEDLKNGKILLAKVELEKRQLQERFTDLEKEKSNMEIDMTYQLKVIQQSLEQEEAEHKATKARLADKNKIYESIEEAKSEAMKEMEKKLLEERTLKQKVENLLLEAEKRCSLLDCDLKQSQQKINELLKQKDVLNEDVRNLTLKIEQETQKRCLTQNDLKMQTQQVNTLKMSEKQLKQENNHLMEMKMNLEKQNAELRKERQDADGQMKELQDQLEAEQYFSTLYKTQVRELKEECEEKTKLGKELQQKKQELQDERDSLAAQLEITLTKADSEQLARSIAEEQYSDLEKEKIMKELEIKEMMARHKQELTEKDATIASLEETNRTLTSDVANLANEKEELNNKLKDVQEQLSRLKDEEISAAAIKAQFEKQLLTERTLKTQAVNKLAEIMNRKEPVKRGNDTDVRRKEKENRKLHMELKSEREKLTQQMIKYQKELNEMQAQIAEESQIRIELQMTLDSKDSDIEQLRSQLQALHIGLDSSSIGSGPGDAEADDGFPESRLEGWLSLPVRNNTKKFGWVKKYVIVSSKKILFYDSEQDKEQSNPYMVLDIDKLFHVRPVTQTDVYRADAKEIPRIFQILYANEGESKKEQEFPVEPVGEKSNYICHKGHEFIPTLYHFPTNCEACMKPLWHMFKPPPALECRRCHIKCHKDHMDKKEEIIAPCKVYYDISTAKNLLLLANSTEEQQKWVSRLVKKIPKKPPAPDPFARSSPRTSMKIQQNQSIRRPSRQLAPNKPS
How it was run: as §1

DYRK1A = DYRK1A (Homo sapiens, UniProt Q13627); details: 0.1 or 1 μM inhibitor; mean of triplicate
HIPK1 = HIPK1 (Homo sapiens, UniProt Q86Z02); details: 0.1 or 1 μM inhibitor; mean of triplicate
How it was run: as §1

MST4 = MST4 (Homo sapiens, UniProt Q9P289); details: 0.1 or 1 μM inhibitor; mean of triplicate
How it was run: as §1

CAMKKβ = CAMKKβ (Homo sapiens, UniProt Q96RR4); details: 0.1 or 1 μM inhibitor; mean of triplicate
Sequence of CAMKKβ (Q96RR4 whole entry): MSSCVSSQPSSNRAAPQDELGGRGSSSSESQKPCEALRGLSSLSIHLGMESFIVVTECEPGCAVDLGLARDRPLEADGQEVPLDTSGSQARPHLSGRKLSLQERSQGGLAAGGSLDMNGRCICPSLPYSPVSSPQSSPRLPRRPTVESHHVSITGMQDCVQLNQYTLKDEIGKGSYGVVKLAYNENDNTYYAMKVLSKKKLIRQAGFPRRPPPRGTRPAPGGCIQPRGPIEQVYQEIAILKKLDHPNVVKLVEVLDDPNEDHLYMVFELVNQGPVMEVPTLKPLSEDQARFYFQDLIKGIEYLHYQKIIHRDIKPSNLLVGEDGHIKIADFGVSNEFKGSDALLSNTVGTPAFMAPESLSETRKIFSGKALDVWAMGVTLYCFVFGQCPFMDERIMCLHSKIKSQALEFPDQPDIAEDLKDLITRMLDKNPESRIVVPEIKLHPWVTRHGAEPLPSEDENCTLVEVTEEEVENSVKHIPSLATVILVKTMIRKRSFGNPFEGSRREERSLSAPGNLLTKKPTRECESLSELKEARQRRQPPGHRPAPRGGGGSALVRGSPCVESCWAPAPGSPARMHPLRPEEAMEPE
How it was run: as §1

TTBK1 = TTBK1 (Homo sapiens, UniProt Q5TCY1); details: 0.1 or 1 μM inhibitor; mean of triplicate
How it was run: as §1

MEKK1 = MEKK1 (Homo sapiens, UniProt Q13233); details: 0.1 or 1 μM inhibitor; mean of triplicate
How it was run: as §1

MPSK1 = MPSK1 (Homo sapiens, UniProt O75716); details: 0.1 or 1 μM inhibitor; mean of triplicate
How it was run: as §1

PRAK = PRAK (Homo sapiens, UniProt Q8IW41); details: 0.1 or 1 μM inhibitor; mean of triplicate
How it was run: as §1

[1] = 0.1 or 1 μM inhibitor, mean of triplicate

Cc1nc(Nc2cnn(C3CCNCC3)c2)nc2c1N(C)C(=O)c1cc3ccccc3cc1N2C [HTH-01-015]
MAP4K5 activity, percentage of DMSO control (MAP4K5): 106 percentage | PKCζ activity, percentage of DMSO control (PKCζ): 98 percentage | CHK2 activity, percentage of DMSO control (CHK2): 105 percentage | MARK3 activity, percentage of DMSO control (MARK3; [1]): 102 percentage | MKK1 activity, percentage of DMSO control (MKK1): 113 percentage | VEG-FR activity, percentage of DMSO control (VEG-FR): 97 percentage | CK1γ 2 activity, percentage of DMSO control (CK1γ 2): 109 percentage | MKK2 activity, percentage of DMSO control (MKK2): 111 percentage | TIE2 activity, percentage of DMSO control (TIE2): 84 percentage | TGFBR1 activity, percentage of DMSO control (TGFBR1): 102 percentage | ASK1 activity, percentage of DMSO control (ASK1): 105 percentage | SIK3 activity, percentage of DMSO control (SIK3): 109 percentage | p38β MAPK activity, percentage of DMSO control (p38β MAPK): 112 percentage | NEK6 activity, percentage of DMSO control (NEK6): 99 percentage | PKBβ activity, percentage of DMSO control (PKBβ): 104 percentage | AMPK activity, percentage of DMSO control (AMPK; [1]): 127 percentage | MARK1 activity, percentage of DMSO control (MARK1; [1]): 106 percentage | EPH-B1 activity, percentage of DMSO control (EPH-B1): 97 percentage | ERK2 activity, percentage of DMSO control (ERK2): 125 percentage | ULK1 activity, percentage of DMSO control (ULK1): 132 percentage | CSK activity, percentage of DMSO control (CSK): 103 percentage | MAPKAP-K3 activity, percentage of DMSO control (MAPKAP-K3): 96 percentage | SIK2 activity, percentage of DMSO control (SIK2): 112 percentage | PDK1 activity, percentage of DMSO control (PDK1): 102 percentage | PKBα activity, percentage of DMSO control (PKBα): 87 percentage | MKK6 activity, percentage of DMSO control (MKK6): 87 percentage | LKB1 activity, percentage of DMSO control (LKB1): 98 percentage | ROCK 2 activity, percentage of DMSO control (ROCK 2): 110 percentage | DYRK1A activity, percentage of DMSO control (DYRK1A): 89 percentage | HIPK1 activity, percentage of DMSO control (HIPK1): 107 percentage | MST4 activity, percentage of DMSO control (MST4): 119 percentage | CAMKKβ activity, percentage of DMSO control (CAMKKβ): 87 percentage | TTBK1 activity, percentage of DMSO control (TTBK1): 124 percentage | MEKK1 activity, percentage of DMSO control (MEKK1): 110 percentage | MPSK1 activity, percentage of DMSO control (MPSK1): 103 percentage | PRAK activity, percentage of DMSO control (PRAK): 105 percentage

CCC(=O)Nc1cccc(Oc2nc(Nc3ccc(N4CCN(C)CC4)cc3OC)ncc2Cl)c1 [WZ4003]
MAP4K5 activity, percentage of DMSO control (MAP4K5): 108 percentage | PKCζ activity, percentage of DMSO control (PKCζ): 86 percentage | CHK2 activity, percentage of DMSO control (CHK2): 40 percentage | MKK1 activity, percentage of DMSO control (MKK1): 98 percentage | VEG-FR activity, percentage of DMSO control (VEG-FR): 74 percentage | CK1γ 2 activity, percentage of DMSO control (CK1γ 2): 102 percentage | MKK2 activity, percentage of DMSO control (MKK2): 98 percentage | TIE2 activity, percentage of DMSO control (TIE2): 94 percentage | TGFBR1 activity, percentage of DMSO control (TGFBR1): 102 percentage | ASK1 activity, percentage of DMSO control (ASK1): 107 percentage | SIK3 activity, percentage of DMSO control (SIK3): 102 percentage | p38β MAPK activity, percentage of DMSO control (p38β MAPK): 104 percentage | NEK6 activity, percentage of DMSO control (NEK6): 79 percentage | PKBβ activity, percentage of DMSO control (PKBβ): 114 percentage | EPH-B1 activity, percentage of DMSO control (EPH-B1): 98 percentage | ERK2 activity, percentage of DMSO control (ERK2): 107 percentage | ULK1 activity, percentage of DMSO control (ULK1): 52 percentage | CSK activity, percentage of DMSO control (CSK): 105 percentage | MAPKAP-K3 activity, percentage of DMSO control (MAPKAP-K3): 91 percentage | SIK2 activity, percentage of DMSO control (SIK2): 70 percentage | PDK1 activity, percentage of DMSO control (PDK1): 104 percentage | PKBα activity, percentage of DMSO control (PKBα): 98 percentage | MKK6 activity, percentage of DMSO control (MKK6): 101 percentage | LKB1 activity, percentage of DMSO control (LKB1): 87 percentage | ROCK 2 activity, percentage of DMSO control (ROCK 2): 80 percentage | DYRK1A activity, percentage of DMSO control (DYRK1A): 102 percentage | HIPK1 activity, percentage of DMSO control (HIPK1): 103 percentage | MST4 activity, percentage of DMSO control (MST4): 101 percentage | CAMKKβ activity, percentage of DMSO control (CAMKKβ): 44 percentage | TTBK1 activity, percentage of DMSO control (TTBK1): 78 percentage | MEKK1 activity, percentage of DMSO control (MEKK1): 91 percentage | MPSK1 activity, percentage of DMSO control (MPSK1): 107 percentage | PRAK activity, percentage of DMSO control (PRAK): 94 percentage

CN1C(=O)c2ccccc2N(C)c2nc(Nc3cnn(C4CCNCC4)c3)ncc21 [XMD-17-51]
Inhibition of MARK3 in profiling (in words) (MARK3; 1 μM): inhibited | Inhibition of AMPK in profiling (in words) (AMPK; 1 μM): inhibited | Inhibition of MARK1 in profiling (in words) (MARK1; 1 μM): inhibited
